The source of these data is patent publication US20240409585A1, “MACROCYCLIC IMMUNOMODULATORS” (priority 2021, published 2024).

Structures are written as SMILES. Bridge positions count the residues as written; N and C are the ends. Square brackets hold non-standard residues; d marks the D form. Peptide text beside a SMILES is read from it. * marks the point of attachment. ξ: configuration not given here. Phe(4-NO2) = N[C@@H](Cc1ccc([N+](=O)[O-])cc1)C(=O)O; Phe(4-CONH2) = NC(=O)c1ccc(C[C@H](N)C(=O)O)cc1; Phe(4-COOH) = N[C@@H](Cc1ccc(C(=O)O)cc1)C(=O)O; Bip = N[C@@H](Cc1ccc(-c2ccccc2)cc1)C(=O)O; Phe(3-Me) = Cc1cccc(C[C@H](N)C(=O)O)c1; Phe(4-F) = N[C@@H](Cc1ccc(F)cc1)C(=O)O; Val(3-OH) = CC(C)(O)[C@H](N)C(=O)O; 4Pal = N[C@@H](Cc1ccncc1)C(=O)O; Cha = N[C@@H](CC1CCCCC1)C(=O)O; Cit = NC(=O)NCCC[C@H](N)C(=O)O; Ile(3ξ) = CCC(C)[C@H](N)C(=O)O; Thr(3ξ) = CC(O)[C@H](N)C(=O)O; Pip = O=C(O)[C@@H]1CCCCN1; Carboxymethyl = O=C(O)C*; NMeA = CN[C@@H](C)C(=O)O; Dab = NCC[C@H](N)C(=O)O; Dap = NC[C@H](N)C(=O)O

One may read the IC50 as the concentration needed to halve the response being measured.

T1 sequence (Q15116 25-288): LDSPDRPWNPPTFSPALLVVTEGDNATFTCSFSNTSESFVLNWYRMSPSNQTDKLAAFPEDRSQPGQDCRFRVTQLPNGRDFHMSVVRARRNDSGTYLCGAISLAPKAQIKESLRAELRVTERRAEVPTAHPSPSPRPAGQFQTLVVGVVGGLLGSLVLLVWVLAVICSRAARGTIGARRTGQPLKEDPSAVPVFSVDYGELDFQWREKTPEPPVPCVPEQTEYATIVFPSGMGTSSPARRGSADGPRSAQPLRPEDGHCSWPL

The first assay has as its target T1, PE-labeled human PD-L1-Ig binding to Jurkat cell line over-expressing human PD-1 (Jurkat-PD-1) (Homo sapiens, UniProt Q15116).
T1 construct: expressed in transfected cells; host or cells: Jurkat
The assay can be described thus: Jurkat-PD-1 Cell Binding High-Content Screening Assay (CBA): Method 1. Conditions: Jurkat HPDL1 PD1 IC50 (uM) (Method 1), Jurkat-hPD-1 cells, PE-labeled PD-L1-Ig 20 nM final.
With `CC(C)C[C@@H]1NC(=O)[C@H](CCN)NC(=O)[C@@H](CC(C)C)NC(=O)[C@H](C)N(C)C(=O)[C@H](CCCNC(=N)N)NC(=O)[C@H](Cc2ccc(-c3ccccc3)cc2)NC(=O)[C@H](C(C)C)NC(=O)[C@H](Cc2c[nH]c3ccccc23)NC(=O)[C@H](CC(=O)O)NC(=O)[C@H](Cc2ccc(O)cc2)NC(=O)[C@H](CC(N)=O)NC(=O)CSC[C@@H](C(=O)N[C@@H](C)C(N)=O)NC(=O)[C@H](CO)NC(=O)[C@H](C(C)C)NC1=O` [Compound 1054] ({CH2CO}-NYDWV[Bip]R[NMeA][dL][Dab]LVSCA-NH2; thioether N-14), the IC50 came out at 0.09 µM.

The same assay, now with this note: Jurkat-hPD-1 cells, PE-labeled PD-L1-Ig 20 nM final; read-out: Jurkat HPDL1 PD1 IC50 (uM) (Method 1).
Regarding `Cc1cccc(C[C@@H]2NC(=O)[C@H](CC(=O)O)NC(=O)[C@H](Cc3ccncc3)NC(=O)[C@H](Cc3ccc(OCC(=O)O)cc3)NC(=O)CSC[C@@H](C(N)=O)NC(=O)[C@H](CO)NC(=O)[C@H](C(C)C)NC(=O)[C@H](CC(C)C)NC(=O)[C@H](CC(N)=O)NC(=O)[C@@H](CC(C)C)NC(=O)[C@H](C)N(C)C(=O)[C@H](CCCNC(N)=O)NC(=O)[C@H](Cc3ccc(-c4ccccc4)cc3)NC(=O)[C@H](CC(C)C)NC2=O)c1` [Compound 1642] ({CH2CO}-Y(Carboxymethyl)[4Pal]D[Phe(3-Me)]L[Bip][Cit][NMeA][dL]NLVSC-NH2; thioether N-14), the IC50 was determined as 0.18 µM.

For `CC(C)C[C@@H]1NC(=O)[C@H](CCN)NC(=O)[C@@H](CC(C)C)NC(=O)[C@H](C)N(C)C(=O)[C@H](CCCNC(=N)N)NC(=O)[C@H](Cc2ccc(-c3ccccc3)cc2)NC(=O)[C@H](C(C)C)NC(=O)[C@H](Cc2c[nH]c3ccccc23)NC(=O)[C@H](CC(=O)O)NC(=O)[C@H](Cc2ccc([N+](=O)[O-])cc2)NC(=O)[C@H](CC(N)=O)NC(=O)CSC[C@@H](C(=O)N[C@@H](C)C(N)=O)NC(=O)[C@H]([C@@H](C)O)NC(=O)[C@H](C(C)C)NC1=O` [Compound 1188] ({CH2CO}-N[Phe(4-NO2)]DWV[Bip]R[NMeA][dL][Dab]LVTCA-NH2; thioether N-14), the IC50 worked out at 0.09 µM.

For `Cc1cccc(C[C@@H]2NC(=O)[C@H](CC(=O)O)NC(=O)[C@H](Cc3ccc(OCC(=O)O)cc3)NC(=O)[C@H](CN)NC(=O)CSC[C@@H](C(N)=O)NC(=O)[C@H](CC(N)=O)NC(=O)[C@H](C(C)C)NC(=O)[C@H](CC3CCCCC3)NC(=O)[C@H](CCN)NC(=O)[C@@H](CC(C)C)NC(=O)[C@@H]3CCCCN3C(=O)[C@H](Cc3ccc(OCC(=O)O)cc3)NC(=O)[C@H](Cc3ccc(-c4ccccc4)cc3)NC(=O)[C@H](Cc3ccc(OCC(=O)O)cc3)NC2=O)c1` [Compound 1895] ({CH2CO}-[Dap]Y(Carboxymethyl)D[Phe(3-Me)]Y(Carboxymethyl)[Bip]Y(Carboxymethyl)[Pip][dL][Dab][Cha]VNC-NH2; thioether N-14), the IC50 amounted to 0.11 µM.

Take `Cc1cccc(C[C@@H]2NC(=O)[C@H](CC(=O)O)NC(=O)[C@H](Cc3ccc(OCC(=O)O)cc3)NC(=O)[C@H](C(C)O)NC(=O)CSC[C@@H](C(=O)N[C@@H](CO)C(N)=O)NC(=O)[C@H](CO)NC(=O)[C@H](C(C)(C)O)NC(=O)[C@H](CC3CCCCC3)NC(=O)[C@H](CCN)NC(=O)[C@@H](CC(C)C)NC(=O)[C@H](C)N(C)C(=O)[C@H](Cc3ccc(C(=O)O)cc3)NC(=O)[C@H](Cc3ccc(-c4ccccc4)cc3)NC(=O)[C@H](Cc3ccc(C(N)=O)cc3)NC2=O)c1` (stereo partly drawn) [Compound 2181] ({CH2CO}-[Thr(3ξ)]Y(Carboxymethyl)D[Phe(3-Me)][Phe(4-CONH2)][Bip][Phe(4-COOH)][NMeA][dL][Dab][Cha][Val(3-OH)]SCS-NH2; thioether N-14): the IC50 worked out at 0.05 µM.

On to `CCC(C)[C@@H]1NC(=O)[C@H](Cc2ccc(-c3ccccc3)cc2)NC(=O)[C@H](C(C)C)NC(=O)[C@H](Cc2cccc(C)c2)NC(=O)[C@H](CC(=O)O)NC(=O)[C@H](Cc2ccc(OCC(=O)O)cc2)NC(=O)[C@H](Cc2ccncc2)NC(=O)CSC[C@@H](C(=O)N[C@@H](CO)C(=O)O)NC(=O)[C@H](CO)NC(=O)[C@H](C(C)C)NC(=O)[C@H](CC2CCCCC2)NC(=O)[C@H](CCN)NC(=O)[C@@H](CC(C)C)NC(=O)[C@H](C)N(C)C1=O` (stereo partly drawn) [Compound 2236] ({CH2CO}-[4Pal]Y(Carboxymethyl)D[Phe(3-Me)]V[Bip][Ile(3ξ)][NMeA][dL][Dab][Cha]VSCS-OH; thioether N-14), for which the IC50 stood at 0.31 µM.

With `Cc1cccc(C[C@@H]2NC(=O)[C@H](CC(=O)O)NC(=O)[C@H](Cc3ccc(OCC(=O)O)cc3)NC(=O)[C@H](Cc3ccncc3)NC(=O)CSC[C@@H](C(=O)N[C@H](CC(N)=O)C(N)=O)NC(=O)[C@H](CO)NC(=O)[C@H](C(C)(C)O)NC(=O)[C@H](CC3CCCCC3)NC(=O)[C@H](CCN)NC(=O)[C@@H](CC(C)C)NC(=O)[C@H](C)N(C)C(=O)[C@H](Cc3ccc(O)cc3)NC(=O)[C@H](Cc3ccc(-c4ccccc4)cc3)NC(=O)[C@H](Cc3ccc(O)cc3)NC2=O)c1` [Compound 2140] ({CH2CO}-[4Pal]Y(Carboxymethyl)D[Phe(3-Me)]Y[Bip]Y[NMeA][dL][Dab][Cha][Val(3-OH)]SC[dN]-NH2; thioether N-14), the IC50 is 0.1 µM.

Consider `CC(C)C[C@@H]1NC(=O)[C@H](Cc2c[nH]c3ccccc23)NC(=O)[C@H](CC(=O)O)NC(=O)[C@H](Cc2ccc(OCC(=O)O)cc2)NC(=O)[C@H](Cc2ccccc2)NC(=O)CSC[C@@H](C(=O)N[C@@H](C)C(N)=O)NC(=O)[C@H](CO)NC(=O)[C@H](C(C)C)NC(=O)[C@H](CC(C)C)NC(=O)[C@H](CC(=O)O)NC(=O)[C@@H](CC(C)C)NC(=O)[C@H](C)N(C)C(=O)[C@H](C(C)C)NC(=O)[C@H](Cc2ccc(-c3ccccc3)cc2)NC1=O` [Compound 2027] ({CH2CO}-FY(Carboxymethyl)DWL[Bip]V[NMeA][dL]DLVSCA-NH2; thioether N-14), for which the IC50 came out at 0.02 µM.

For `CC(C)C[C@@H]1NC(=O)[C@H](Cc2c[nH]c3ccccc23)NC(=O)[C@H](CC(=O)O)NC(=O)[C@H](Cc2ccncc2)NC(=O)[C@H](Cc2ccc(OCC(=O)O)cc2)NC(=O)CSC[C@@H](C(=O)N[C@@H](CC(N)=O)C(N)=O)NC(=O)[C@H](CO)NC(=O)[C@H](C(C)C)NC(=O)[C@H](CC2CCCCC2)NC(=O)[C@H](CCN)NC(=O)[C@@H](CC(C)C)NC(=O)[C@H](C)N(C)C(=O)[C@H](C(C)C)NC(=O)[C@H](Cc2ccc(-c3ccccc3)cc2)NC1=O` [Compound 1901] ({CH2CO}-Y(Carboxymethyl)[4Pal]DWL[Bip]V[NMeA][dL][Dab][Cha]VSCN-NH2; thioether N-14), the IC50 came out at 0.01 µM.

Regarding `CC(C)C[C@@H]1NC(=O)[C@H](C)NC(=O)[C@@H](C)NC(=O)[C@H](C)N(C)C(=O)[C@H](CCC(=O)O)NC(=O)[C@H](Cc2ccc(-c3ccccc3)cc2)NC(=O)[C@H](CC(C)C)NC(=O)[C@H](Cc2c[nH]c3ccccc23)NC(=O)[C@H](CC(=O)O)NC(=O)[C@H](Cc2ccc(C(=O)O)cc2)NC(=O)[C@H](Cc2ccccc2)NC(=O)CSC[C@@H](C(=O)N[C@@H](C)C(N)=O)NC(=O)[C@H](CO)NC(=O)[C@H](C(C)C)NC1=O` [Compound 1773] ({CH2CO}-F[Phe(4-COOH)]DWL[Bip]E[NMeA][dA]ALVSCA-NH2; thioether N-14), the IC50 was found to be 0.05 µM.

On to `CC[C@H](C)[C@@H]1NC(=O)[C@H](Cc2ccc(-c3ccccc3)cc2)NC(=O)[C@H](C(C)C)NC(=O)[C@H](Cc2c[nH]c3ccccc23)NC(=O)[C@H](CC(=O)O)NC(=O)[C@H](Cc2ccc(C(=O)O)cc2)NC(=O)[C@H](Cc2ccncc2)NC(=O)CSC[C@@H](C(=O)N[C@@H](C)C(N)=O)NC(=O)[C@H]([C@@H](C)O)NC(=O)[C@H](C(C)C)NC(=O)[C@H](CC(C)C)NC(=O)[C@H](CCN)NC(=O)[C@@H](CC(C)C)NC(=O)[C@H](C)N(C)C1=O` [Compound 1411] ({CH2CO}-[4Pal][Phe(4-COOH)]DWV[Bip]I[NMeA][dL][Dab]LVTCA-NH2; thioether N-14), for which the IC50 stood at 0.02 µM.

As to `CC(C)C[C@@H]1NC(=O)[C@H](CCN)NC(=O)[C@@H](CC(C)C)NC(=O)[C@H](C)N(C)C(=O)[C@H](CCCNC(=N)N)NC(=O)[C@H](Cc2ccc(-c3ccccc3)cc2)NC(=O)[C@H](C(C)C)NC(=O)[C@H](Cc2c[nH]c3ccccc23)NC(=O)[C@H](CC(=O)O)NC(=O)[C@H](Cc2ccc(O)cc2)NC(=O)[C@H](CC(N)=O)NC(=O)CSC[C@@H](C(=O)N[C@@H](C)C(N)=O)NC(=O)[C@H]([C@@H](C)O)NC(=O)[C@H](C(C)C)NC1=O` [Compound 1189] ({CH2CO}-NYDWV[Bip]R[NMeA][dL][Dab]LVTCA-NH2; thioether N-14), the IC50 is 0.03 µM.

On to `Cc1cccc(C[C@@H]2NC(=O)[C@H](CC(=O)O)NC(=O)[C@H](Cc3ccc(C(=O)O)cc3)NC(=O)[C@H](Cc3ccc(F)cc3)NC(=O)CSC[C@@H](C(=O)N[C@@H](CCN)C(N)=O)NC(=O)[C@H](CCC(=O)O)NC(=O)[C@H](C(C)C)NC(=O)[C@H](CC3CCCCC3)NC(=O)[C@H](CCN)NC(=O)[C@@H](CC(C)C)NC(=O)[C@H](C)N(C)C(=O)[C@H](Cc3ccc(C(=O)O)cc3)NC(=O)[C@H](Cc3ccc(-c4ccccc4)cc3)NC(=O)[C@H](Cc3ccc(C(=O)O)cc3)NC2=O)c1` [Compound 2208] ({CH2CO}-[Phe(4-F)][Phe(4-COOH)]D[Phe(3-Me)][Phe(4-COOH)][Bip][Phe(4-COOH)][NMeA][dL][Dab][Cha]VEC[Dab]-NH2; thioether N-14), for which the IC50 was 0.01 µM.

Turning to `Cc1cccc(C[C@@H]2NC(=O)[C@H](CC(=O)O)NC(=O)[C@H](Cc3ccc(OCC(=O)O)cc3)NC(=O)[C@H](C(C)O)NC(=O)CSC[C@@H](C(=O)N[C@@H](CCN)C(N)=O)NC(=O)[C@H](CO)NC(=O)[C@H](C(C)(C)O)NC(=O)[C@H](CC3CCCCC3)NC(=O)[C@H](CCN)NC(=O)[C@@H](CC(C)C)NC(=O)[C@H](C)N(C)C(=O)[C@H](Cc3ccc(C(=O)O)cc3)NC(=O)[C@H](Cc3ccc(-c4ccccc4)cc3)NC(=O)[C@H](Cc3ccc(C(=O)O)cc3)NC2=O)c1` (stereo partly drawn) [Compound 2152] ({CH2CO}-[Thr(3ξ)]Y(Carboxymethyl)D[Phe(3-Me)][Phe(4-COOH)][Bip][Phe(4-COOH)][NMeA][dL][Dab][Cha][Val(3-OH)]SC[Dab]-NH2; thioether N-14), the IC50 was 0.01 µM.
